Test results from ChEMBL document CHEMBL5625239, “Synthesis of 1,3,5-triphenyl-1,2,4-triazole derivatives and their neuroprotection by anti-oxidative stress and anti-inflammation and protecting BBB” (Eur J Med Chem, 2023).
Activity calls are given as the source filed them. The calls are words filed in the database; no cut-off is given here.

Columns and labels:
RAW264.7 [1] = assay: Anti-inflammatory activity in LPS-induced mouse RAW264.7 cells assessed as decrease in COX-2 expression preincubated with compound for 1 hrs followed by LPS stimulation and measured after 24 hrs by Western blot analysis; type: functional, cell-based; details: dose 1.25-5 µM, time 25.0 hrs
PC-12 [2] = assay: Protection against SNP-induced cell damage in rat PC-12 cells assessed as reduction in apoptosis by measuring decrease in cell count at 10 uM preincubated with compound for 2 hrs followed by SNP addition and measured after 24 hrs by confocal laser microscopic analysis; type: functional, cell-based; details: time 26.0 hrs
Rattus norvegicus [3] = assay: Neuroprotective activity against middle cerebral artery occlusion induced ischemia stroke Sprague-Dawley rat model assessed as neurological severity score at 10 mg/kg, ip measured after 24 hrs by behavioral test (reference value: 10.50 +/- 2.72); type: functional
Rattus norvegicus [4] = assay: Neuroprotective activity against middle cerebral artery occlusion induced ischemia stroke Sprague-Dawley rat model assessed as reduction in TNF-alpha level in serum at 20 mg/kg, ip measured after 24 hrs by ELISA; type: functional, organism-based
Rattus norvegicus [5] = assay: Neuroprotective activity against middle cerebral artery occlusion induced ischemia stroke Sprague-Dawley rat model assessed as reduction in glycocalyx degradation by measuring decrease in serum syndecan-1 level at 5 to 20 mg/kg, ip measured after 24 hrs by ELISA; type: functional, organism-based; details: dose 5-20 mg/kg
[6] = target: Voltage-gated inwardly rectifying potassium channel KCNH2 (Homo sapiens, UniProt Q12809); assay: Inhibition of hERG in HEK293 cells by whole-cell patch clamp electrophysiological recording; type: toxicity, cell-based
Rattus norvegicus [7] = assay: Neuroprotective activity against middle cerebral artery occlusion induced ischemia stroke Sprague-Dawley rat model assessed as reduction in serum MMP-9 level administered intraperitoneally and measured after 24 hrs by ELISA; type: functional, organism-based; details: dose 5-20 mg/kg, route ip
Rattus norvegicus [8] = assay: Neuroprotective activity against middle cerebral artery occlusion induced ischemia stroke Sprague-Dawley rat model assessed as cerebral infarction area at 5 mg/kg, ip measured after 24 hrs by TTC staining based imaging analysis (reference value: 20.08 +/- 5.70); type: functional
PC-12 [9] = assay: Protection against SNP-induced cell damage in rat PC-12 cells at 10 uM pretreated with compound for 2 hrs followed by SNP addition and measured after 24 hrs by MTT assay; type: functional, cell-based; details: time 26.0 hrs
PC-12 [10] = assay: Protection against SNP-induced cell damage in rat PC-12 cells assessed as reduction in apoptosis by measuring decrease in bright-blue nuclei at 10 uM preincubated with compound for 2 hrs followed by SNP addition and measured after 24 hrs by confocal laser microscopic analysis; type: functional, cell-based; details: time 26.0 hrs
Rattus norvegicus [11] = assay: Neuroprotective activity against middle cerebral artery occlusion induced ischemia stroke Sprague-Dawley rat model assessed as reduction in MDA level in serum at 20 mg/kg, ip measured after 24 hrs by ELISA; type: functional, organism-based
Rattus norvegicus [12] = assay: Neuroprotective activity against middle cerebral artery occlusion induced ischemia stroke Sprague-Dawley rat model assessed as neurological severity score at 20 mg/kg, ip measured after 24 hrs by behavioral test (reference value: 10.50 +/- 2.72); type: functional
[13] = target: T1, Prostaglandin G/H synthase 1 (Ovis aries, UniProt P05979); assay: Inhibition of ovine COX-1 using arachidonic acid as substrate preincubated with compound for 5 mins followed by substrate addition and measured after 2 mins by enzyme immunoassay
T1 sequence (P05979 whole entry): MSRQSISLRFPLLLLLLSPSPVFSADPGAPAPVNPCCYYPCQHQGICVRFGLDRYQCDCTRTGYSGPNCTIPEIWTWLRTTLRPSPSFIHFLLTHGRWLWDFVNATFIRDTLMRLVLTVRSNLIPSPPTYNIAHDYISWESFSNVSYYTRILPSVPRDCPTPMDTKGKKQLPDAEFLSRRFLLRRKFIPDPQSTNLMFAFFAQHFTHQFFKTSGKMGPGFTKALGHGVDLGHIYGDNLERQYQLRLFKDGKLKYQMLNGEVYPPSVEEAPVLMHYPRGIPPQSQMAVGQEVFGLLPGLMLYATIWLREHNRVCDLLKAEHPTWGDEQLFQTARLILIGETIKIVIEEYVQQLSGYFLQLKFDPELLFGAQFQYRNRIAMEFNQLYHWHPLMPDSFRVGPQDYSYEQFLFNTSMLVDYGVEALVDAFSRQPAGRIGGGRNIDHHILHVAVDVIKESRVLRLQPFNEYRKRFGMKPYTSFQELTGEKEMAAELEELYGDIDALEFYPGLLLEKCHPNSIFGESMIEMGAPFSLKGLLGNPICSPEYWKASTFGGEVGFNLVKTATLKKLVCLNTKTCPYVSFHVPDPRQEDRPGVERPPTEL

RAW264.7 [14] = assay: Anti-inflammatory activity in mouse RAW264.7 cells assessed as inhibition of LPS-induced NO production preincubated with compound for 1 hrs followed by LPS stimulation and measured after 24 hrs; type: functional, cell-based; details: time 25.0 hrs
Rattus norvegicus [15] = assay: Neuroprotective activity against middle cerebral artery occlusion induced ischemia stroke Sprague-Dawley rat model assessed as reduction in glycocalyx degradation by measuring decrease in serum heparan sulfate level at 5 to 20 mg/kg, ip measured after 24 hrs by ELISA; type: functional, organism-based; details: dose 5-20 mg/kg
RAW264.7 [16] = assay: Cytotoxicity against mouse RAW264.7 cells assessed as reduction in cell viability at 5 uM incubated for 24 hrs by MTT assay; type: toxicity, cell-based; details: raw264.7, 24 h
RAW264.7 [17] = assay: Anti-inflammatory activity in LPS-induced mouse RAW264.7 cells assessed as decrease in iNOS expression preincubated with compound for 1 hrs followed by LPS stimulation and measured after 24 hrs by Western blot analysis; type: functional, cell-based; details: dose 1.25-5 µM, time 25.0 hrs
Rattus norvegicus [18] = assay: Neuroprotective activity against middle cerebral artery occlusion induced ischemia stroke Sprague-Dawley rat model assessed as cerebral infarction area at 20 mg/kg, ip measured after 24 hrs by TTC staining based imaging analysis (reference value: 20.08 +/- 5.70); type: functional
Rattus norvegicus [19] = assay: Neuroprotective activity against middle cerebral artery occlusion induced ischemia stroke Sprague-Dawley rat model assessed as reduction in glycocalyx degradation by measuring decrease in serum hyaluronic acid level administered intraperitoneally and measured after 24 hrs by ELISA; type: functional, organism-based; details: dose 5-20 mg/kg, route ip
PC-12 [20] = assay: Protection against SNP-induced cell damage in rat PC-12 cells assessed as reduction in apoptosis by measuring normal nuclear staining at 10 uM preincubated with compound for 2 hrs followed by SNP addition and measured after 24 hrs by confocal laser microscopic analysis; type: functional, cell-based; details: time 26.0 hrs
RAW264.7 [21] = assay: Anti-inflammatory activity in LPS-induced mouse RAW264.7 cells assessed as reduction in PGE2 level preincubated with compound for 1 hrs followed by LPS stimulation and measured after 24 hrs by ELISA; type: functional, cell-based; details: time 25.0 hrs
[22] = Acute toxicity in ip dosed mouse assessed as lethal dose; type: organism-based; details: in vivo
[23] = Acute toxicity in mouse assessed as mortality at 1000 mg/kg, ip; type: organism-based; details: in vivo
PC-12 [24] = assay: Protection against SNP-induced cell damage in rat PC-12 cells assessed as inhibition of ROS accumulation by measuring reduction in green fluorescence intensity at 10 uM preincubated with compound for 2 hrs followed by SNP addition and measured after 24 hrs by laser confocal microscopic analysis; type: functional, cell-based; details: time 26.0 hrs
Rattus norvegicus [25] = assay: Neuroprotective activity against middle cerebral artery occlusion induced ischemia stroke Sprague-Dawley rat model assessed as neurological severity score at 5 mg/kg, ip measured after 24 hrs by behavioral test (reference value: 10.50 +/- 2.72); type: functional
[26] = target: Kelch-like ECH-associated protein 1 (Homo sapiens, UniProt Q14145); assay: Binding affinity to CM5 chip immobilized KEAP1 Kelch domain (unknown origin) assessed as dissociation equilibrium constant by SPR analysis
Rattus norvegicus [27] = assay: Neuroprotective activity against middle cerebral artery occlusion induced ischemia stroke Sprague-Dawley rat model assessed as reduction in IL-1beta level in serum at 20 mg/kg, ip measured after 24 hrs by ELISA; type: functional, organism-based
PC-12 [28] = assay: Neuroprotective activity against SNP-induced cell damage in rat PC-12 cells pretreated with compound for 2 hrs followed by SNP addition and measured after 24 hrs by MTT assay; type: functional, cell-based; details: dose 2.5-100 µM, time 26.0 hrs
Rattus norvegicus [29] = assay: Neuroprotective activity against middle cerebral artery occlusion induced ischemia stroke Sprague-Dawley rat model assessed as increase in SOD level in serum at 20 mg/kg, ip measured after 24 hrs by ELISA; type: functional, organism-based
[30] = Acute toxicity in mouse assessed as effect on behavior at 1000 mg/kg, ip; type: organism-based; details: in vivo
Rattus norvegicus [31] = assay: Neuroprotective activity against middle cerebral artery occlusion induced ischemia stroke Sprague-Dawley rat model assessed as cerebral infarction area at 10 mg/kg, ip measured after 24 hrs by TTC staining based imaging analysis (reference value: 20.08 +/- 5.70); type: functional

Kelch-like ECH-associated protein 1, sequence (Q14145 whole entry, the tested form may be a part): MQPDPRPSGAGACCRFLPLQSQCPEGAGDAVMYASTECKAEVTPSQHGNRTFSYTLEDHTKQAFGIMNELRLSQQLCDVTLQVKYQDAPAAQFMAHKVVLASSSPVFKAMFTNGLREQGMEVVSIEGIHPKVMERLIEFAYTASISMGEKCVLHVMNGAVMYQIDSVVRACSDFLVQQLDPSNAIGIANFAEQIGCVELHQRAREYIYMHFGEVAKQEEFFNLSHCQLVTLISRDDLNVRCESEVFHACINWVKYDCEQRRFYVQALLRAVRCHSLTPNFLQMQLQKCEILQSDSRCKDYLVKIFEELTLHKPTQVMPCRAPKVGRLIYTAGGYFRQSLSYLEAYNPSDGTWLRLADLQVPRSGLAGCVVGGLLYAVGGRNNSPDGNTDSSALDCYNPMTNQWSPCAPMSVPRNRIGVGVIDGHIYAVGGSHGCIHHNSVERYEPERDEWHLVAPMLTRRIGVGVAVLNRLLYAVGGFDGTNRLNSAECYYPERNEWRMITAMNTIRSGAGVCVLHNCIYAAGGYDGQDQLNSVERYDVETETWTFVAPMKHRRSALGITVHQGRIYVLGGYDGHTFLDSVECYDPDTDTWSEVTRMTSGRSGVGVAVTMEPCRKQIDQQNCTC
Voltage-gated inwardly rectifying potassium channel KCNH2, sequence (Q12809 whole entry): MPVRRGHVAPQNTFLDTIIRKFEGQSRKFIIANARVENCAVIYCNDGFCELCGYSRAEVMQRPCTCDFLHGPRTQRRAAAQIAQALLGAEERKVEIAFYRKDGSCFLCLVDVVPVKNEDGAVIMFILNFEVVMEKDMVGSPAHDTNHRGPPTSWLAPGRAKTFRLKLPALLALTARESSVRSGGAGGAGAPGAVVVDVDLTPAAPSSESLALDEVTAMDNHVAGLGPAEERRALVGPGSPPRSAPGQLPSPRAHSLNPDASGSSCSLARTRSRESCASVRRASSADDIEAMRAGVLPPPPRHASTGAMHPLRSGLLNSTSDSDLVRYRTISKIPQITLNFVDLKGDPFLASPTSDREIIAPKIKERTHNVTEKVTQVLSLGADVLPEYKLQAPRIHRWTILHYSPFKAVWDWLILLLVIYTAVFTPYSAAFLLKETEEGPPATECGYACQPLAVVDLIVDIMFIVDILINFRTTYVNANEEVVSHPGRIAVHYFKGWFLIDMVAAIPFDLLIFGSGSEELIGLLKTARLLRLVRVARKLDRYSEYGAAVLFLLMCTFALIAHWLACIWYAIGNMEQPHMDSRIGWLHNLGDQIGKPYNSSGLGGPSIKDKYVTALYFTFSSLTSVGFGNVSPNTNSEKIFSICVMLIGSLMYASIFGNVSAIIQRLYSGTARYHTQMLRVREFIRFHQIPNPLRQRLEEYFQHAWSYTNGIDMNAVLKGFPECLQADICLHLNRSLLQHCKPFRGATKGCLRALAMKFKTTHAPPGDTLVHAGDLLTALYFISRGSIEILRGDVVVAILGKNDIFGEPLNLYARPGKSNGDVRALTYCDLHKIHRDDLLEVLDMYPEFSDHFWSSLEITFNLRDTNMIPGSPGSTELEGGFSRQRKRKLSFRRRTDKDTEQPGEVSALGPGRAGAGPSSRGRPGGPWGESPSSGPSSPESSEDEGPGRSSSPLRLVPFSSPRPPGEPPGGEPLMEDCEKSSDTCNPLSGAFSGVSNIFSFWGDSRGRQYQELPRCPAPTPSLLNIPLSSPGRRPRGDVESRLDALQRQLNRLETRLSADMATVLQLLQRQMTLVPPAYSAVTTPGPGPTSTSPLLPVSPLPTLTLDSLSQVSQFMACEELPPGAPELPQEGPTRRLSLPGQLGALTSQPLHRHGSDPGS

In the case of NS(=O)(=O)c1ccc(-n2nc(-c3ccc(C(F)(F)F)cc3O)nc2-c2ccccc2O)cc1, the Activity (RAW264.7 [1]) is reported as “Dose-Dependent Effect”, the Activity (PC-12 [2]) is reported as “Active” and the Activity (Rattus norvegicus [3]) is reported as 9.25. For the same compound, the Activity (Rattus norvegicus [4]) was “Active”, the Activity (Rattus norvegicus [5]) was “Active” and the IC50 [6] was over 30 µM. For the same compound, the Activity (Rattus norvegicus [7]) was “Dose-Dependent Effect”, the Activity (Rattus norvegicus [8]) was 18.52 and the Activity (PC-12 [9]) was “Active”. The Activity (PC-12 [10]) was “Active”, the Activity (Rattus norvegicus [11]) was “Active” and the Activity (Rattus norvegicus [12]) was 7.4. For the same compound, the IC50 [13] was 86.5 µM, the Activity (RAW264.7 [14]) was “Active” and the Activity (Rattus norvegicus [15]) was “Active”. The Activity (RAW264.7 [16]) was “Non-Toxic”, the Activity (RAW264.7 [17]) was “Dose-Dependent Effect” and the Activity (Rattus norvegicus [18]) was 15.61. For the same compound, the Activity (Rattus norvegicus [19]) was “Dose-Dependent Effect”, the Activity (PC-12 [20]) was “Active” and the Activity (RAW264.7 [21]) was “Active”. For the same compound, the LD50 [22] was over 1000 mg/kg, the Activity [23] was “Non-Toxic” and the Activity (PC-12 [24]) was “Active”. The Activity (Rattus norvegicus [25]) was 9.2, the Kd [26] was 16.5 µM and the Activity (Rattus norvegicus [27]) was “Active”. The Activity (PC-12 [28]) was “Dose-Dependent Effect”, the Activity (Rattus norvegicus [29]) was “Active” and the Activity [30] was “Non-Toxic”. The Activity (Rattus norvegicus [31]) was 17.43.
